Reference: US9573954B2, “Pyrazolopyrimidine compounds” (University Health Network, priority 2012, dated 2017)

Experiments:
[1] = system: ovarian cancer cells (OVCAR-3); test: Cancer cell line growth inhibition, Sulforhodamine B assay, OVCAR-3; type: cell-based; settings: Homo sapiens, OVCAR-3, OVCAR-3 ovarian cancer cell line; read-out: Cancer Cell Line GI50 Range OVCAR-3
How it was run: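 OVCAR-3 cells were seeded 24 h before compound addition, then exposed for 5 days to final concentrations of 10 nM to 50 μM in DMEM with 10% FBS. Growth was measured by TCA fixation and sulforhodamine B staining with absorbance at 570 nm. Inhibition was relative to DMSO-only cells, and GI50 came from curve fitting.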

human TTK = biological target: T1, human TTK (Homo sapiens, UniProt P33981); test: TTK inhibition assay (indirect ELISA); type: biochemical; settings: 100 μM ATP; read-out: TTK IC50 Range
T1 construct: Active TTK was purchased from Invitrogen as an amino terminal GST fusion of full length human TTK; purchased Invitrogen
T1 sequence (P33981 1-857): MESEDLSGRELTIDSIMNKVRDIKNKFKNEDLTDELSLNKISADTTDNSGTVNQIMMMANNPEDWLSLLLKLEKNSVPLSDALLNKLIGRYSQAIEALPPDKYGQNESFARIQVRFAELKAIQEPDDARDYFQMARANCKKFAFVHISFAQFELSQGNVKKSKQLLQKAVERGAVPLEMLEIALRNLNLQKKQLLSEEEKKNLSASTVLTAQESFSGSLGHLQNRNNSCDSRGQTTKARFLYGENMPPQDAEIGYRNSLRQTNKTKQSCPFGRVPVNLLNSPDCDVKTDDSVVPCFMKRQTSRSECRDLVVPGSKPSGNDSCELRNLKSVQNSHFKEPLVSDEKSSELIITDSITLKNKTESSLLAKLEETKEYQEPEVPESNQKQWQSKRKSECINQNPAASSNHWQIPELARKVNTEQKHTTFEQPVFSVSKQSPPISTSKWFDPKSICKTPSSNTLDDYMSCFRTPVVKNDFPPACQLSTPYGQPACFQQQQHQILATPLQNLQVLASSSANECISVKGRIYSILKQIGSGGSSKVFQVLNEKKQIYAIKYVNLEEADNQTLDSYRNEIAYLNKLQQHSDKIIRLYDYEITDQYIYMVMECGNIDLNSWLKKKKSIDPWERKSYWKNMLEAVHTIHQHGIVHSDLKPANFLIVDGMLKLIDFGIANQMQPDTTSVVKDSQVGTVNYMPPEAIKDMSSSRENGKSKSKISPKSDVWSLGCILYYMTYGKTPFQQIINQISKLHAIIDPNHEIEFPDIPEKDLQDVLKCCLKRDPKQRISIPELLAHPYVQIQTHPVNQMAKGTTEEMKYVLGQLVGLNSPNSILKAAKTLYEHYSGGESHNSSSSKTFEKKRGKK
How it was run: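 Activity detected by indirect ELISA after compounds sat with full-length GST-TTK for 5 min prior to starting the reaction with ATP. IC50 came from a four-parameter logistic curve of % inhibition, calculated against background and uninhibited control wells.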

[2] = system: colon cancer cells (HCT116); test: Cancer cell line growth inhibition, Sulforhodamine B assay, HCT116; type: cell-based; settings: Homo sapiens, HCT-116, HCT116 colon cancer cell line; read-out: Cancer Cell Line GI50 Range HCT116
How it was run: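 HCT116 cells, 1000–4000 per well, seeded 24 h ahead, then treated 5 days with compound at 10 nM to 50 μM final in DMEM with 10% FBS. Growth measured by sulforhodamine B staining after TCA fixation, A570; GI50 from inhibition relative to DMSO-only cells.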

[3] = system: breast cancer cells (MDA-MB-468); test: Cancer cell line growth inhibition, Sulforhodamine B assay, MDA-MB-468; type: cell-based; settings: Homo sapiens, MDA-MB-468, MDA-MB-468 breast cancer cell line; read-out: Cancer Cell Line GI50 Range MDA-MB-468
How it was run: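 MDA-MB-468 cells exposed 5 days to compound at final 10 nM to 50 μM in DMEM with 10% FBS. Growth measured by sulforhodamine B protein staining after TCA fixation, absorbance 570 nm; inhibition relative to DMSO-only cells, GI50 determined for cytotoxic compounds.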

[4] = system: Ovarian 2393A tumor initiating cells; test: Tumor-initiating cell growth inhibition, Alamar Blue assay, ovarian TICs; type: cell-based; settings: 144 h; Ovarian 2393A TICs, 6 days; read-out: Tumor Initiating Cell GI50 Range Ovarian 2393A
Text: (§1) Non-tissue or tissue cultured treated T-75 flask and 96-well plates were purchased from VWR. Vitamin B-27 supplement, MEM NEAA (minimum essential medium non essential amino acids), sodium pyruvate, L-glutamine, N2 supplement, penicillin-streptomycin and fungizone/amphotericin B were obtained from Invitrogen. Lipid mixture, heparin and EGF were purchased from Sigma; bFGF from BD Biosciences. Tumor Initiating Cells (TICs) from colon were routinely maintained using non-tissue cultured treated T-75 flasks in DMEM:F12 medium containing 0.2XB-27 supplement, 4 ug/ml heparin, 1×MEM NEAA, 1×sodium pyruvate, 1 mM glutamine, 10 pg/ul bFGF, 20 pg/ul EGF, 1× N2 supplement, lipid mixture, penicillin-streptomycin and fungizone/amphotericin B. Ovarian TICs were routinely maintained using tissue cultured treated T-75 flasks in DMEM:F12 medium containing IXB-27 supplement, 4 ug/ml heparin, 20 pg/ul bFGF, 20 pg/ul EGF and penicillin-streptomycin.
(§2) Compounds described herein were dissolved in DMSO and further diluted in cell culture medium for GI50 determination. Colon TICs were trypsinized and seeded into non-tissue cultured treated 96-well plates with 4,000 cells/well. After 24 h, compound was added into the cell culture at different concentrations, and the final concentration of DMSO was adjusted to 0.1%. Cells were then cultured at 37° C. for 9 days. Ovarian TICs were trypsinized and seeded into tissue cultured treated 96-well plates with 1,000 cells/well. After 24 h, compound was added into the cell culture at different concentrations, and the final concentration of DMSO was adjusted to 0.1%. Cells were then cultured at 37° C. for 6 days. Cell viability was assessed by Alamar Blue assay: 10 ul of Alamar Blue was added into each well. After 4 hours incubation at 37° C., fluorescence was recorded at excitation 544 and emission 590. GI50 (Growth inhibition) was calculated using GraphPad Prism 4.0 software.
(§3) In Table 1 below, GI50 value ranges for compound examples against TICs (Colon 12 and Ovarian 2393A) are given.

[5] = system: Colon 12 tumor initiating cells; test: Tumor-initiating cell growth inhibition, Alamar Blue assay, colon TICs; type: cell-based; settings: 216 h; Colon 12 TICs, 9 days; read-out: Tumor Initiating Cell GI50 Range Colon 12
Text: as §1, §2, §3

GI50 [1]	IC50 (human TTK)	GI50 [2]	GI50 [3]	GI50 [4]	GI50 [5]	Structure (SMILES)
≤ 100 nM	< 100 nM	≤ 100 nM	≤ 100 nM	100 to 500 nM	≤ 100 nM	Cc1cc(-c2cnn3c(NCC4CCOCC4)cc(N[C@@H](C4CC4)C(C)(C)O)nc23)ccc1C(=O)NC1CC1 [Example C41, (S)-N-cyclopropyl-4-(5-((1-cyclopropyl-2-hydroxy-2-methylpropyl)amino)-7-(((tetrahydro-2H-pyran-4-yl)methyl)amino)pyrazolo[1,5-a]pyrimidin-3-yl)-2-methylbenzamide]
≤ 100 nM	< 100 nM	≤ 100 nM	≤ 100 nM	≤ 100 nM	≤ 100 nM	Cc1cc(-c2cnn3c(NCC4CC4)cc(N[C@H]4CCCC[C@H]4O)nc23)ccc1C(=O)NC1CC1 [Example C42, N-cyclopropyl-4-(7-((cyclopropylmethyl)amino)-5-(((1S,2R)-2-hydroxycyclohexyl)amino)pyrazolo[1,5-a]pyrimidin-3-yl)-2-methylbenzamide]
100 to 500 nM	< 100 nM	≤ 100 nM	≤ 100 nM	≤ 100 nM	≤ 100 nM	Cc1cc(-c2cnn3c(NCC4CCN(C)CC4)cc(Oc4cccc(F)c4)nc23)ccc1C(=O)NC1CC1 [Example C46, N-cyclopropyl-4-(5-(3-fluorophenoxy)-7-(((1-methylpiperidin-4-yl)methyl)amino)pyrazolo[1,5-a]pyrimidin-3-yl)-2-methylbenzamide]
100 to 500 nM	< 100 nM	100 to 500 nM	100 to 500 nM	100 to 500 nM	100 to 500 nM	Cc1cc(-c2cnn3c(NCC4CCOCC4)cc(N[C@H]4CC[C@H](O)CC4)nc23)ccc1C(=O)NC1CC1 [Example C48]
100 to 500 nM	< 100 nM	≤ 100 nM	100 to 500 nM	100 to 500 nM	100 to 500 nM	Cc1cc(-c2cnn3c(NCC4CCOCC4)cc(OC4CCN(C5COC5)C4)nc23)ccc1C(=O)NC1CC1 (stereo not drawn) [Example C116]
≤ 100 nM	< 100 nM	≤ 100 nM	≤ 100 nM	≤ 100 nM	≤ 100 nM	Cc1cc(-c2cnn3c(NC[C@H]4C[C@H](O)C4)cc(Oc4cccnc4)nc23)ccc1C(=O)NC1CC1 [Example C144]
100 to 500 nM	< 100 nM	100 to 500 nM	100 to 500 nM	100 to 500 nM	100 to 500 nM	Cc1cc(-c2cnn3c(NC[C@H]4C[C@H](O)C4)cc(NC4CCOCC4)nc23)ccc1C(=O)NC1CC1 [Example C145]
100 to 500 nM	< 100 nM	≤ 100 nM	≤ 100 nM	≤ 100 nM	≤ 100 nM	Cc1cc(-c2cnn3c(NCC4(F)CCNCC4)cc(Oc4cccc(F)c4)nc23)ccc1C(=O)NC1CC1 [Example C146]
≤ 100 nM	< 100 nM	≤ 100 nM	≤ 100 nM	≤ 100 nM	≤ 100 nM	Cc1cc(-c2cnn3c(NC[C@H]4CC[C@@H](O)CC4)cc(Oc4cccnc4)nc23)ccc1C(=O)NC1CC1 [Example C176]

The remaining lines, values behind:

Structure (SMILES)	GI50 [1]	IC50 (human TTK)	GI50 [2]	GI50 [3]	GI50 [4]	GI50 [5]
Cc1cc(-c2cnn3c(NCC4CCOCC4)cc(N[C@H]4CCCC[C@H]4O)nc23)ccc1C(=O)NC1CC1 [Example C39, N-cyclopropyl-4-(5-(((1S,2R)-2-hydroxycyclohexyl)amino)-7-(((tetrahydro-2H-pyran-4-yl)methyl)amino)pyrazolo[1,5-a]pyrimidin-3-yl)-2-methylbenzamide]	≤ 100 nM	< 100 nM	≤ 100 nM	≤ 100 nM	≤ 100 nM	≤ 100 nM
Cc1cc(-c2cnn3c(NCC4CCOCC4)cc(N[C@@H](C(C)C)C(C)(C)O)nc23)ccc1C(=O)NC1CC1 [Example C40, (S)-N-cyclopropyl-4-(5-((2-hydroxy-2,4-dimethylpentan-3-yl)amino)-7-(((tetrahydro-2H-pyran-4-yl)methyl)amino)pyrazolo[1,5-a]pyrimidin-3-yl)-2-methylbenzamide]	100 to 500 nM	< 100 nM	≤ 100 nM	≤ 100 nM	100 to 500 nM	≤ 100 nM
Cc1cc(-c2cnn3c(NCC4CCOCC4)cc(NC4(CO)CCCC4)nc23)ccc1C(=O)NC1CC1 [Example C45]	≤ 100 nM	< 100 nM	≤ 100 nM	≤ 100 nM	100 to 500 nM	≤ 100 nM
Cc1cc(-c2cnn3c(NCC4COC4)cc(Oc4cccnc4)nc23)ccc1C(=O)NC1CC1 [Example C100]	100 to 500 nM	< 100 nM	100 to 500 nM	100 to 500 nM	≤ 100 nM	≤ 100 nM
Cc1cc(-c2cnn3c(NCC4CCOCC4)cc(N[C@@H]4CCCC[C@@H]4O)nc23)ccc1C(=O)NC1CC1 [Example C118]	100 to 500 nM	< 100 nM	≤ 100 nM	100 to 500 nM	100 to 500 nM	100 to 500 nM
Cc1cc(-c2cnn3c(NCC4CCOCC4)cc(N[C@H]4CCN(C5COC5)C4)nc23)ccc1C(=O)NC1CC1 [Example C120]	> 500 nM	< 100 nM	100 to 500 nM	100 to 500 nM	> 500 nM	> 500 nM
Cc1cc(-c2cnn3c(NCC4CCOCC4)cc(N[C@H](CO)CC(C)C)nc23)ccc1C(=O)NC1CC1 [Example C130]	100 to 500 nM	< 100 nM	≤ 100 nM	100 to 500 nM	≤ 100 nM	≤ 100 nM
Cc1cc(-c2cnn3c(NCC4CCOCC4)cc(-c4ccncc4)nc23)ccc1C(=O)NC1CC1 [Example C150]	100 to 500 nM	< 100 nM	100 to 500 nM	100 to 500 nM	100 to 500 nM	100 to 500 nM
Cc1cc(-c2cnn3c(NCC4CCOCC4)cc(N[C@H](CO)C4CCCC4)nc23)ccc1C(=O)NC1CC1 [Example C165]	100 to 500 nM	< 100 nM	≤ 100 nM	100 to 500 nM	100 to 500 nM	≤ 100 nM
